Results: publication PMC4086519, “Anti-Trichophyton Activity of Protocatechuates and Their Synergism with Fluconazole” (Evidence-based Complementary and Alternative Medicine : eCAM, 2014)
In brackets after ≈: the same amount, converted by molar mass. Like-named read-outs stand apart in the source and are kept apart here.

How the values were obtained:
Format in all cases: cell-based
Trichophyton rubrum [1] = experiment: Checkerboard synergism assay with fluconazole
Protocol: (§1) The drug activity was assessed using a checkerboard method derived from a standardised procedure established by the National Committee for Clinical Laboratory Standards ([…]-A2). Briefly, the test was performed on the same medium used for susceptibility testing. Volumes of 50 μL of each drug in a concentration four times the final concentration were dispensed in 96-well plates ([…], Switzerland). To each well, 100 μL of the fungal suspension was added to produce a final concentration of 5.0 × 10^3 CFU/mL. As a negative control, we used 200 μL of RPMI, while as a positive control, we used 100 μL of RPMI medium with 100 μL of inoculum. The plates were incubated at 35°C, and the reading was completed after 168 hours. We conducted visual and spectrophotometric readings at 490 nm. To determine the effect of combinatorial fractions, we calculated the fractional inhibitory concentration (FIC). The FIC was calculated by taking the MIC of the substance in combination/MIC of the substance alone. The sum of the fractional inhibitory concentration (FIC) of each substance consists of the fractional inhibitory concentration index: (the MIC of drug A in combination/the MIC of drug A alone) + (the MIC of drug B in combination/the MIC of drug B alone).

[2] = test system: Trichophyton mentagrophytes; experiment: Checkerboard synergism assay with fluconazole; settings: for MIC: Trichophyton mentagrophytes, read-out: MIC, substances alone; for MIC / MIC, substances alone: checkerboard, 168 hours
Protocol: as §1

Trichophyton rubrum [3] = experiment: Broth microdilution MIC (CLSI M38-A2, modified); settings: 35°C, 7 days
Protocol: (§2) To evaluate its antifungal activity, […] of dermatophytes were tested: two clinical strains of Trichophyton rubrum (Tr1 and Tr2), Trichophyton rubrum ATCC MYA 3108, two clinical strains of Trichophyton mentagrophytes (Tm1 and Tm2), and Trichophyton mentagrophytes ATCC 40131 (Tm3). The microorganisms were obtained from the collection of the Clinical Mycology Laboratory of the Department of Clinical Analyses at the School of Pharmaceutical Sciences of Universidade Estadual Paulista (UNESP). The strains were cultivated on Sabouraud dextrose agar (Difco, BD Biosciences) and incubated at 28°C for 7-15 days. For all experiments, the strains were cultivated on Potato Dextrose Agar (Difco, BD Biosciences) and incubated at 28°C as described above or until sporulation. The dilution of the synthetic compounds was performed with DMSO (Synth, Diadema, Sao Paulo, Brazil) as described by Scorzoni et al.. […] The antifungal drugs were diluted according to the CLSI […]-A2 document. Stock solutions of Fluconazole (Sigma-Aldrich, St. Louis, MO, USA) were prepared, considering its power. Serial twofold dilutions were prepared according to the recommendations of Zhang and collaborators, with some modifications. The antifungal activity tests were performed using the broth microdilution method as described in […]-A2, a document produced by the Clinical and Laboratory Standards Institute (CLSI, 2008), with modifications. The medium used was RPMI 1640 with L-glutamine (Sigma-Aldrich, St. Louis, MO, USA) buffered to pH 7.0 with 0.165 M morpholinepropanesulfonic acid (MOPS) (Sigma-Aldrich, St. Louis, MO, USA), supplemented with 2% glucose. […] The suspension of conidia was then transferred to small sterile test tubes where they remained for 40 minutes to separate the microconidia, which were lighter and therefore present in the supernatant. […] These suspensions were diluted in RPMI 1640 (Sigma-Aldrich, St. […] Positive (100 μL of RPMI medium with 100 μL of inoculum) and negative (200 μL of RPMI) controls were included in all experiments. The plates were incubated with agitation at 35°C for 7 days. The MIC reading was performed by spectrophotometry at 490 nm.

[4] = test system: Trichophyton mentagrophytes; experiment: Broth microdilution MIC (CLSI M38-A2, modified); settings: 35°C, 7 days
Protocol: as §2

Trichophyton rubrum [5] = experiment: Minimum fungicide concentration (MFC)
Protocol: (§3) A qualitative analysis of the fungal viability was performed by transferring a portion of the wells to a plate with Sabouraud (Difco, BD Biosciences) medium and incubating it at 35°C for the time determined for each fungal agent. […] A visual reading was performed to confirm the death or growth inhibition provided by fluconazole and the sixteen semisynthetic substances derived from protocatechuic acid.

[6] = test system: Trichophyton mentagrophytes; experiment: Minimum fungicide concentration (MFC)
Protocol: as §3

[7] = test system: NOK (oral human keratinocyte) cell lines; experiment: Sulphorhodamine B cytotoxicity assay; settings: NOK cells, 24 hours
Protocol: The cytotoxicity of sixteen semisynthetic compounds derived from protocatechuic acid was assessed using a sulphorhodamine B assay in NOK (oral human keratinocyte) cell lines obtained from the American Type Culture Collection (Manassas, VA, USA). The strains were maintained in bottles appropriate for cell culture with keratinocyte serum free medium (Gibco, Life Technologies) and incubated in standard conditions of 37°C and 5% CO2. Cell concentrations ranging from 2.5 to 5.0 × 10^4 cells/mL were used for the formation of cell monolayers. The concentrations of pure substances were kept in contact with the cells for 24 hours. After the incubation period, the cells were treated with the sulphorhodamine B reagent (Sigma-Aldrich, St. Louis, MO, USA) as previously described by Skehan et al., with some modifications.

[8] = Tr1, T. rubrum clinical isolate
[9] = Tr2, T. rubrum clinical isolate
[10] = Tm3, T. mentagrophytes ATCC 40131

Compound: OC(Cn1cncn1)(Cn1cncn1)c1ccc(F)cc1F [FLU, Fluconazole]
- MIC (Trichophyton rubrum [1]; Trichophyton rubrum, Tr1, checkerboard, 168 hours, read-out: MIC, substances alone): 2 µg/mL
- MIC ([2]; ATCC40131, Tm3 (ATCC 40131)): 0.5 µg/mL
- MIC ([2]; Tm1): 1 µg/mL

Compound: CCCCCCCCCOC(=O)c1ccc(O)c(O)c1 [Protocatechuate nonyl, nonyl protocatechuate]
- MIC (Trichophyton rubrum [3]; [8]): 1.95 µg/mL (≈ 6.96 µM)
- MIC (Trichophyton rubrum [3]; [9]): 3.9 µg/mL (≈ 13.9 µM)
- MIC (Trichophyton rubrum [3]; Tr3, T. rubrum ATCC MYA 3108): 1.95 µg/mL (≈ 6.96 µM)
- MIC ([4]; Tm1, clinical isolate): 3.9 µg/mL (≈ 13.9 µM)
- MIC ([4]; Tm2, clinical isolate): 3.9 µg/mL (≈ 13.9 µM)
- MIC [4, 10]: 3.9 µg/mL (≈ 13.9 µM)
- MFC (Trichophyton rubrum [5]; [8]): 1.95 µg/mL (≈ 6.96 µM)
- MFC (Trichophyton rubrum [5]; [9]): 3.9 µg/mL (≈ 13.9 µM)
- MFC (Trichophyton rubrum [5]; Tr3, T. rubrum ATCC MYA 3108): 3.90 µg/mL (≈ 13.9 µM)
- MFC ([6]; Tm1, clinical isolate): 3.9 µg/mL (≈ 13.9 µM)
- MFC ([6]; Tm2, clinical isolate): 3.9 µg/mL (≈ 13.9 µM)
- MFC [6, 10]: 3.9 µg/mL (≈ 13.9 µM)
- FIC index (Trichophyton rubrum [1]): 1.0
- MIC of the protocatechuate, substances combined (Trichophyton rubrum [1]): 0.03 µg/mL
- association type (in words) (Trichophyton rubrum [1]): additive
- reduction in the MIC of the protocatechuate (Trichophyton rubrum [1]): 63.33 times
- MIC, substances alone (Trichophyton rubrum [1]; Tr1, checkerboard, 168 hours): 1.9 µg/mL
- FIC index [2]: 1.0
- MIC of fluconazole, substances combined [2]: 0.5 µg/mL
- MIC of the protocatechuate, substances combined [2]: 0.03 µg/mL
- association type (in words) [2]: additive
- reduction in the MIC of the protocatechuate [2]: 130 fold
- MIC, substances alone ([2]; Tm1): 3.9 µg/mL
- MIC, substances alone ([2]; Tm3 (ATCC 40131)): 3.9 µg/mL
- Cytotoxicity IC50 [7]: 52.1 µg/mL

Compound: CCCCCCCOC(=O)c1ccc(O)c(O)c1 [Protocatechuate heptyl, protocatechuate heptyl]
- MIC (Trichophyton rubrum [3]; [8]): 1.95 µg/mL (≈ 7.73 µM)
- MIC (Trichophyton rubrum [3]; [9]): 1.95 µg/mL (≈ 7.73 µM)
- MIC (Trichophyton rubrum [3]; Tr3, T. rubrum ATCC MYA 3108): 1.95 µg/mL (≈ 7.73 µM)
- MIC ([4]; Tm1, clinical isolate): 3.9 µg/mL (≈ 15.5 µM)
- MIC ([4]; Tm2, clinical isolate): 0.97 µg/mL (≈ 3.84 µM)
- MIC [4, 10]: 3.9 µg/mL (≈ 15.5 µM)
- MFC (Trichophyton rubrum [5]; [8]): 1.95 µg/mL (≈ 7.73 µM)
- MFC (Trichophyton rubrum [5]; [9]): 1.95 µg/mL (≈ 7.73 µM)
- MFC (Trichophyton rubrum [5]; Tr3, T. rubrum ATCC MYA 3108): 1.95 µg/mL (≈ 7.73 µM)
- MFC ([6]; Tm1, clinical isolate): 3.9 µg/mL (≈ 15.5 µM)
- MFC ([6]; Tm2, clinical isolate): 0.97 µg/mL (≈ 3.84 µM)
- MFC [6, 10]: 3.9 µg/mL (≈ 15.5 µM)
- FIC index (Trichophyton rubrum [1]): 1.0
- association type (in words) (Trichophyton rubrum [1]): additive
- MIC, substances alone (Trichophyton rubrum [1]; Tr1, checkerboard, 168 hours): 1.9 µg/mL
- MIC of the protocatechuate, substances combined [2]: 0.03 µg/mL
- association type (in words) [2]: synergistic
- reduction in the MIC of fluconazole [2]: fourfold
- MIC, substances alone ([2]; Tm1): 3.9 µg/mL
- MIC, substances alone ([2]; Tm3 (ATCC 40131)): 3.9 µg/mL
- FIC index ([2]; listed as 9): 0.48
- reduction in the MIC of fluconazole ([2]; listed as 9): four-
- Cytotoxicity IC50 [7]: 78.1 µg/mL

Compound: CCCCCCOC(=O)c1ccc(O)c(O)c1 [Protocatechuate hexyl, hexyl protocatechuate]
- MIC (Trichophyton rubrum [3]; [8]): 3.9 µg/mL (≈ 16.4 µM)
- MIC (Trichophyton rubrum [3]; [9]): 1.95 µg/mL (≈ 8.18 µM)
- MIC (Trichophyton rubrum [3]; Tr3, T. rubrum ATCC MYA 3108): 3.9 µg/mL (≈ 16.4 µM)
- MIC ([4]; Tm1, clinical isolate): 1.95 µg/mL (≈ 8.18 µM)
- MIC ([4]; Tm2, clinical isolate): 3.9 µg/mL (≈ 16.4 µM)
- MIC [4, 10]: 3.90 µg/mL (≈ 16.4 µM)
- MFC (Trichophyton rubrum [5]; [8]): 3.9 µg/mL (≈ 16.4 µM)
- MFC (Trichophyton rubrum [5]; [9]): 3.90 µg/mL (≈ 16.4 µM)
- MFC (Trichophyton rubrum [5]; Tr3, T. rubrum ATCC MYA 3108): 3.9 µg/mL (≈ 16.4 µM)
- MFC ([6]; Tm1, clinical isolate): 3.90 µg/mL (≈ 16.4 µM)
- MFC ([6]; Tm2, clinical isolate): 3.9 µg/mL (≈ 16.4 µM)
- MFC [6, 10]: 7.80 µg/mL (≈ 32.7 µM)
- FIC index (Trichophyton rubrum [1]): 1.1
- MIC of the protocatechuate, substances combined (Trichophyton rubrum [1]): 0.48 µg/mL
- association type (in words) (Trichophyton rubrum [1]): indifferent
- reduction in the MIC of the protocatechuate (Trichophyton rubrum [1]): 8.125 times
- MIC, substances alone (Trichophyton rubrum [1]; Tr1, checkerboard, 168 hours): 3.9 µg/mL
- FIC index [2]: 0.72
- MIC of the protocatechuate, substances combined [2]: 0.03 µg/mL
- association type (in words) [2]: additive
- MIC, substances alone ([2]; Tm1): 1.9 µg/mL
- MIC, substances alone ([2]; Tm3 (ATCC 40131)): 3.9 µg/mL
- Cytotoxicity IC50 [7]: 66.5 µg/mL

Compound: CCCCCOC(=O)c1ccc(O)c(O)c1 [Protocatechuate pentyl, pentyl protocatechuate]
- MIC (Trichophyton rubrum [3]; [8]): 7.8 µg/mL (≈ 34.8 µM)
- MIC (Trichophyton rubrum [3]; [9]): 7.8 µg/mL (≈ 34.8 µM)
- MIC (Trichophyton rubrum [3]; Tr3, T. rubrum ATCC MYA 3108): 7.8 µg/mL (≈ 34.8 µM)
- MIC ([4]; Tm1, clinical isolate): 3.90 µg/mL (≈ 17.4 µM)
- MIC ([4]; Tm2, clinical isolate): 7.8 µg/mL (≈ 34.8 µM)
- MIC [4, 10]: 7.8 µg/mL (≈ 34.8 µM)
- MFC (Trichophyton rubrum [5]; [8]): 7.8 µg/mL (≈ 34.8 µM)
- MFC (Trichophyton rubrum [5]; [9]): 7.8 µg/mL (≈ 34.8 µM)
- MFC (Trichophyton rubrum [5]; Tr3, T. rubrum ATCC MYA 3108): 7.8 µg/mL (≈ 34.8 µM)
- MFC ([6]; Tm1, clinical isolate): 15.6 µg/mL (≈ 69.6 µM)
- MFC ([6]; Tm2, clinical isolate): 7.8 µg/mL (≈ 34.8 µM)
- MFC [6, 10]: 7.8 µg/mL (≈ 34.8 µM)
- FIC index (Trichophyton rubrum [1]): 1.0
- MIC of fluconazole, substances combined (Trichophyton rubrum [1]): 0.12 µg/mL
- MIC of the protocatechuate, substances combined (Trichophyton rubrum [1]): 7.8 µg/mL
- association type (in words) (Trichophyton rubrum [1]): additive
- reduction in the MIC of fluconazole (Trichophyton rubrum [1]): 16.66 times
- MIC, substances alone (Trichophyton rubrum [1]; Tr1, checkerboard, 168 hours): 7.8 µg/mL
- FIC index [2]: 1.0
- MIC of fluconazole, substances combined [2]: 0.5 µg/mL
- MIC of the protocatechuate, substances combined [2]: 0.03 µg/mL
- association type (in words) [2]: additive
- reduction in the MIC of the protocatechuate [2]: 130 fold
- MIC, substances alone ([2]; Tm1): 3.9 µg/mL
- MIC, substances alone ([2]; Tm3 (ATCC 40131)): 7.8 µg/mL
- Cytotoxicity IC50 [7]: 57.0 µg/mL
